Experimental data: publication PMC6395926, “Mass Balance and Drug Interaction Potential of Intravenous Eravacycline Administered to Healthy Subjects” (Antimicrobial Agents and Chemotherapy, 2019)
Like-named read-outs stand apart in the source and are kept apart here.

Legend:
[1] = Drug interaction study with rifampin (CYP3A4 inducer): plasma PK of i.v. eravacycline and metabolites; type: in vivo, human; settings: for AUC0–24 / AUC(0-inf) / clearance / half-life / Vd / Cmax: n = 12; for Vd: read-out: Vss; for Cmax: iv
Method: Two single-center, open-label studies were conducted to evaluate the effects of itraconazole (CYP3A4 inhibitor) and rifampin (CYP3A4 inducer) on the pharmacokinetics of i.v. eravacycline in healthy subjects.
(ii) Study design. Each study included a 28-day screening period, a 13-day treatment period (19 days for rifampin), and an end-of-study visit 2 weeks after the last dose of study drug. […] For the itraconazole study, 200 mg oral itraconazole was administered q12h on day 8 and q24h on days 9 and 10. For the rifampin study, 600 mg oral rifampin was administered q24h from day 8 to day 17. All study treatments were administered in the fasting state.
(§1) (iii) Study assessments. Blood samples for PK analysis of eravacycline and its metabolites, TP-498, TP-6208, and TP-034, were collected predose and 1, 2, 4, 6, 8, 12, 24, 36, and 48 h after the start of the i.v. infusion on day 1 and day 10 (itraconazole) or day 1 and day 17 (rifampin). Safety assessments included AEs, clinical laboratory safety tests (hematology, serum chemistry, electrolytes, coagulation, urinalysis, and lipid profile), vital signs, physical examinations, and 12-lead ECG.
Concentrations of eravacycline, TP-498, and TP-6208 in human plasma samples were measured by LC-tandem MS after solid-phase extraction over a calibration range of 5.00 to 500 ng/ml. The LLOQ for eravacycline, TP-498, TP-6208, and TP-034 in human plasma was 5.00 ng/ml. Samples with eravacycline initial concentrations above the upper limit of quantification (500 ng/ml) were diluted appropriately with control blank human plasma and reanalyzed. There was no interference seen when human plasma was fortified with eravacycline, TP-498, TP-6208, and either itraconazole or rifampin.
(iv) Pharmacokinetic analysis. PK assessments included Cmax, Tmax, AUC0–24, AUC0–t, t1/2, CL, and Vss. Actual sampling time was used for PK calculations. PK parameters were derived by noncompartmental analysis. Descriptive statistics were calculated for analyte concentrations at each evaluation time point and for all quantitative PK parameters of eravacycline, TP-498, TP-6208, and TP-034 for day 1 and day 10 (day 17 for rifampin). The effect of itraconazole or rifampin on the PK profile of i.v. eravacycline was evaluated by comparing log-transformed PK parameters (Cmax and AUC0–t) associated with the administration of study drug on day 1 and day 10 (itraconazole) or day 1 and day 17 (rifampin) using paired t tests. The ratio and 90% confidence interval (CI) were presented after back transformation to the original scale. Pharmacokinetic variables were calculated using WinNonlin Professional.

[2] = Mass balance study: safety/tolerability; type: in vivo, human
Method: Safety was assessed from adverse events (AEs), physical examinations, laboratory safety tests (hematology, coagulation, clinical chemistry, and urinalysis), vital signs, ECGs, and body weight.

[3] = Mass balance study: excretion of radioactivity in urine and feces after i.v. [14C]eravacycline; type: in vivo, human; settings: 60 mg [14C]eravacycline i.v.
Source text: (ii) Study design. This was a single-center, open-label study of a single i.v. dose of [^14C]eravacycline to assess the mass balance recovery and PK of eravacycline. The primary objectives were to determine mass balance recovery, determine routes and rates of excretion, provide metabolite profiling and structural identification, and assess the PK of radioactivity in plasma and whole blood. Subjects were screened for inclusion in the study, including a detailed medical history, physical examination, and laboratory evaluations, in the 28 days before dosing. […] After an overnight fast, each subject received 60 mg [^14C]eravacycline containing not more than 3.8 MBq (105 μCi) ^14C as a single i.v. infusion over 60 min.
(v) Excretion of radioactivity. Mass balance was determined from the incremental amount and cumulative amount excreted in urine, feces, and urine and feces combined. Amount excreted and amount excreted expressed as a percentage of administered dose were determined for urine, feces, and total samples.

[4] = Itraconazole drug interaction study: safety/tolerability; type: in vivo, human
Method: as §1

[5] = Drug interaction study with rifampin (CYP3A4 inducer): plasma PK of i.v. eravacycline and metabolites; type: in vivo; settings: human, intravenous, day 17, eravacycline plus rifampin, read-out: AUC0–t (distribution, as worded in the text)
[6] = eravacycline plus rifampin (day 17) vs eravacycline alone (day 1), 1 mg/kg i.v.
[7] = human, plasma, intravenous, 1 mg/kg, day 1, eravacycline alone, mean ± SD
[8] = human, plasma, intravenous, day 17, with rifampin, mean ± SD

CN(C)[C@@H]1C(O)=C(C(N)=O)C(=O)[C@@]2(O)C(O)=C3C(=O)c4c(O)c(NC(=O)CN5CCCC5)cc(F)c4C[C@H]3C[C@@H]12 [eravacycline]
AUC0–24 ([1]; day 1, eravacycline alone, mean ± SD): 4,100 ± 589 h·ng/ml | AUC0–24 ([1]; day 17, with rifampin, mean ± SD): 3,090 ± 568 h·ng/ml | decrease of AUC0–24 with coadministration of rifampin ([1]; day 17 vs day 1): approximately 25% | decrease of AUC0–∞ with coadministration of rifampin ([1]; day 17 vs day 1): ~35% | increase of CL with coadministration of rifampin ([1]; day 17 vs day 1): approximately 50% | Ratio of geometric mean AUC0–t, day 17/day 1 [1, 6]: 67.9% | Ratio of geometric mean Cmax, day 17/day 1 [1, 6]: 106.5% | AUC(0-inf) [1, 7]: 5380 ng·h/mL | clearance [1, 7]: 3.2 ± 0.6 mL/min/kg | half-life [1, 7]: 15 ± 2 h | Vd [1, 7]: 2.85 ± 0.29 L/kg | AUC(0-t) ([1]; human, plasma, intravenous, 1 mg/kg, day 1, eravacycline alone, read-out: AUC0–t (distribution, as worded in the text)): 4100 ng·h/mL | AUC(0-inf) [1, 8]: 3520 ng·h/mL | clearance [1, 8]: 4.94 ± 1.08 mL/min/kg | half-life [1, 8]: 11 ± 2.3 h | Vd [1, 8]: 2.49 ± 0.51 L/kg | Cmax ([1]; human, plasma, day 1, eravacycline 1 mg/kg i.v. alone, mean ± SD): 1170 ng/mL | Cmax ([1]; human, plasma, day 17, eravacycline 1 mg/kg i.v. with rifampin 600 mg daily day 8 to 17, mean ± SD): 1260 ng/mL | serious or severe AEs [2]: No serious or severe AEs | number of subjects who experienced drug-related AEs ([2]; 5 male subjects): 3 | subjects who experienced at least 1 adverse effect (AE) ([2]; 5 male subjects, single i.v. dose): 80% | Renal excretion, share of the dose [3]: approximately 34% | total radioactivity recovered in the feces [3]: 47.8% | total radioactive dose recovered in the urine and feces ([3]; 288-h collection period): 82.8% | share of the dose recovered within the first 72 h ([3]; urine and feces): Approximately half | subjects who experienced an AE ([4]; eravacycline i.v. plus itraconazole treatment period, 1 of 10 subjects): 10.0% | subjects who experienced an AE ([4]; eravacycline i.v. treatment period, 1 of 12 subjects): 8.3% | serious AEs or discontinuations for AEs related to study drug ([4]; itraconazole study): No serious AEs | AUC(0-t) [5]: 3090 ng·h/mL
